From US20240109917A1 (ACTELION PHARMACEUTICALS LTD, priority 2020, published 2024)
Where two headings read alike, the source gives them in different places.

Molecular target: PDGFRβ (Rattus norvegicus (Rat), UniProt Q05030)
Experiment: PDGFRβ Cellular Assay (PDGFRb P-Y751 HTRF in A10 cells stimulated with PDGF-BB)
Format: cell-based
In short: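 Rat A10 cells, plated overnight, were treated with compound for 3 hours, then stimulated with PDGF-BB (working stock 100 ng/mL in 10% FBS medium). After lysis, PDGFRβ P-Y751 was detected by HTRF.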

Chain of PDGFRβ (Q05030 32-1097): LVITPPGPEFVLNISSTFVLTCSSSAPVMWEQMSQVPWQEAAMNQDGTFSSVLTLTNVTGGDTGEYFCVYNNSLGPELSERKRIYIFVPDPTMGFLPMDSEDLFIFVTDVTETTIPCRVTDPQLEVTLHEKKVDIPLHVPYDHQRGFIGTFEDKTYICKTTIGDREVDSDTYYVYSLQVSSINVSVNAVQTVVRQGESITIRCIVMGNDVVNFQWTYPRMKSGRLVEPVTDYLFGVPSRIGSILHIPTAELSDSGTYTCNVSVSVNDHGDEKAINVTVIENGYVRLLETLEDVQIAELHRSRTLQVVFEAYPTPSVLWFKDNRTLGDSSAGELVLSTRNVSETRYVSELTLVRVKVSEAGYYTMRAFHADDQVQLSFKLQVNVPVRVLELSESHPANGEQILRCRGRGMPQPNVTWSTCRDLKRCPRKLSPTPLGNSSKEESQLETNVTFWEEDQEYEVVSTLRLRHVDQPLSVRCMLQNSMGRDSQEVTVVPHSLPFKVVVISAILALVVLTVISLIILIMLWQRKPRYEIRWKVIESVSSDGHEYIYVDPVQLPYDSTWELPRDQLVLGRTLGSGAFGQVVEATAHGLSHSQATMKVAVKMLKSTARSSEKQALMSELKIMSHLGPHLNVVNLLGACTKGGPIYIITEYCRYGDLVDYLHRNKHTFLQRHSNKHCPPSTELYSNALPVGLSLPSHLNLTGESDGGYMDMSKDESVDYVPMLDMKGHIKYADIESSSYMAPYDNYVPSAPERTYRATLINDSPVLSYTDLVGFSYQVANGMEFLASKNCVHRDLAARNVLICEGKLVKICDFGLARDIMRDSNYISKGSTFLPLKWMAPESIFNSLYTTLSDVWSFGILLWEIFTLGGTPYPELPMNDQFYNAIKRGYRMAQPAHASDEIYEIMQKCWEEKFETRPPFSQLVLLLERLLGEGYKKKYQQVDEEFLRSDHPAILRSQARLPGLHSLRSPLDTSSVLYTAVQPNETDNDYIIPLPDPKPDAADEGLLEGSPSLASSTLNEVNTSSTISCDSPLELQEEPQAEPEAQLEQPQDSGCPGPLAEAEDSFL

## Cc1ncc(NC(=O)CN2CC(C)(C)C2)cc1NC(=O)c1cnn2cc(-c3c(C)nn(C4COC4)c3C)sc12 [Example 425, 2-(3,5-dimethyl-1-(oxetan-3-yl)-1H-pyrazol-4-yl)-N-(5-(2-(3,3-dimethylazetidin-1-yl)acetamido)-2-methylpyridin-3-yl)pyrazolo[5,1-b]thiazole-7-carboxamide]
PDGFR Cellular IC50
  IC50: 11.7 nM

## Cc1ncc(NC(=O)CN2CC(C)(C)C2)cc1NC(=O)c1cnn2cc(-c3cnn(C)c3C)sc12 [Example 434, 2-(1,5-Dimethyl-1H-pyrazol-4-yl)-N-(5-(2-(3,3-dimethylazetidin-1-yl)acetamido)-2-methylpyridin-3-yl)pyrazolo[5,1-b]thiazole-7-carboxamide]
read-out: PDGFR Cellular IC50
  IC50: 2.4 nM

## Cc1ncc(NC(=O)CN2CCCCC2)cc1NC(=O)c1cnn2cc(-c3cnn4c3OCCC4)sc12 [Example 419, 2-(6,7-dihydro-5H-pyrazolo[5,1-b][1,3]oxazin-3-yl)-N-(2-methyl-5-(2-(piperidin-1-yl)acetamido)pyridin-3-yl)pyrazolo[5,1-b]thiazole-7-carboxamide]
read-out: PDGFR Cellular IC50
  IC50: 2.6 nM

## Cc1ncc(NC(=O)CN2CCCC2(C)C)cc1NC(=O)c1cnn2cc(-c3cnn(C(C)(C)CO)c3)sc12 [Example 457, N-(5-(2-(2,2-dimethylpyrrolidin-1-yl)acetamido)-2-methylpyridin-3-yl)-2-(1-(1-hydroxy-2-methylpropan-2-yl)-1H-pyrazol-4-yl)pyrazolo[5,1-b]thiazole-7-carboxamide]
read-out: PDGFR Cellular IC50
  IC50: 4 nM

## Cc1ncc(NC(=O)CNCC(C)C)cc1NC(=O)c1cnn2cc(-c3cnn4c3OCCC4)sc12 [Example 414, 2-(6,7-dihydro-5H-pyrazolo[5,1-b][1,3]oxazin-3-yl)-N-(5-(2-(isobutylamino)acetamido)-2-methylpyridin-3-yl)pyrazolo[5,1-b]thiazole-7-carboxamide]
read-out: PDGFR Cellular IC50
  IC50: 6.2 nM

## Cc1ncc(C(=O)NCCN2CCCC2(C)C)cc1NC(=O)c1cnn2cc(-c3cnn4c3CCC4)sc12 [Example 481, 2-(5,6-dihydro-4H-pyrrolo[1,2-b]pyrazol-3-yl)-N-(5-((2-(2,2-dimethylpyrrolidin-1-yl)ethyl)carbamoyl)-2-methylpyridin-3-yl)pyrazolo[5,1-b]thiazole-7-carboxamide]
read-out: PDGFR Cellular IC50
  IC50: 3.9 nM

## COC1CN(CC(=O)Nc2cnc(C)c(NC(=O)c3cnn4cc(-c5cn(C)nc5C)sc34)c2)C1 [Example 441, 2-(1,3-Dimethyl-1H-pyrazol-4-yl)-N-(5-(2-(3-methoxyazetidin-1-yl)acetamido)-2-methylpyridin-3-yl)pyrazolo[5,1-b]thiazole-7-carboxamide]
read-out: PDGFR Cellular IC50
  IC50: 30.5 nM

## Cc1ncc(NC(=O)CN2CC(C)(C)C2)cc1NC(=O)c1cnn2cc(-c3ccnnc3C)sc12 [Example 410, N-(5-(2-(3,3-dimethylazetidin-1-yl)acetamido)-2-methylpyridin-3-yl)-2-(3-methylpyridazin-4-yl)pyrazolo[5,1-b]thiazole-7-carboxamide]
PDGFR Cellular IC50
  IC50: 270 nM

## Cc1ncc(NC(=O)CN2CCC[C@H]2C)cc1NC(=O)c1cnn2cc(-c3nn(C)nc3C)sc12 [Example 443, (R)-2-(2,5-dimethyl-2H-1,2,3-triazol-4-yl)-N-(2-methyl-5-(2-(2-methylpyrrolidin-1-yl)acetamido)pyridin-3-yl)pyrazolo[5,1-b]thiazole-7-carboxamide]
read-out: PDGFR Cellular IC50
  IC50: 3.9 nM

## COc1ccncc1-c1cn2ncc(C(=O)Nc3cc(NC(=O)CN4CC(C)(C)C4)cnc3C)c2s1 [Example 40, N-(5-(2-(3,3-dimethylazetidin-1-yl)acetamido)-2-methylpyridin-3-yl)-2-(4-methoxypyridin-3-yl)pyrazolo[5,1-b]thiazole-7-carboxamide]
read-out: PDGFR Cellular IC50
  IC50: 2 nM

## Cc1ncc(NC(=O)C[C@@H]2CCN(C(C)C)C2)cc1NC(=O)c1cnn2cc(-c3cnn(C)c3)sc12 [Example 464, (S)—N-(5-(2-(1-isopropylpyrrolidin-3-yl)acetamido)-2-methylpyridin-3-yl)-2-(1-methyl-1H-pyrazol-4-yl)pyrazolo[5,1-b]thiazole-7-carboxamide]
read-out: PDGFR Cellular IC50
  IC50: 2000 nM

## Cc1ncc(NC(=O)CNCC2CC2)cc1NC(=O)c1cnn2cc(-c3cnn4c3CCC4)sc12 [Example 454, N-(5-(2-((cyclopropylmethyl)amino)acetamido)-2-methylpyridin-3-yl)-2-(5,6-dihydro-4H-pyrrolo[1,2-b]pyrazol-3-yl)pyrazolo[5,1-b]thiazole-7-carboxamide]
read-out: PDGFR Cellular IC50
  IC50: 12.7 nM

## Cc1ncc(NC(=O)CN2CC3(CCCCO3)C2)cc1NC(=O)c1cnn2cc(-c3cnn4c3CCC4)sc12 [Example 424, N-(5-(2-(5-oxa-2-azaspiro[3.5]nonan-2-yl)acetamido)-2-methylpyridin-3-yl)-2-(5,6-dihydro-4H-pyrrolo[1,2-b]pyrazol-3-yl)pyrazolo[5,1-b]thiazole-7-carboxamide]
read-out: PDGFR Cellular IC50
  IC50: 6.8 nM

## COCCn1cc(-c2cn3ncc(C(=O)Nc4cc(NC(=O)C[C@@H]5CCCN5C(C)C)cnc4C)c3s2)cn1 [Example 451, (S)—N-(5-(2-(1-isopropylpyrrolidin-2-yl)acetamido)-2-methylpyridin-3-yl)-2-(1-(2-methoxyethyl)-1H-pyrazol-4-yl)pyrazolo[5,1-b]thiazole-7-carboxamide]
read-out: PDGFR Cellular IC50
  IC50: 67 nM

## Cc1ncc(NC(=O)CN2C[C@@H](C)O[C@H](C)C2)cc1NC(=O)c1cnn2cc(-c3cnn(C)c3C)sc12 (relative stereo) [Example 433, 2-(1,5-Dimethyl-1H-pyrazol-4-yl)-N-(5-(2-(trans-2,6-dimethylmorpholino)acetamido)-2-methylpyridin-3-yl)pyrazolo[5,1-b]thiazole-7-carboxamide]
read-out: PDGFR Cellular IC50
  IC50: 5.1 nM

## Cc1ncc(NC(=O)CN2CC(C)(C)C2)cc1NC(=O)c1cnn2cc(-c3cnn4c3CCC4)sc12 [Example 409, 2-(5,6-dihydro-4H-pyrrolo[1,2-b]pyrazol-3-yl)-N-(5-(2-(3,3-dimethylazetidin-1-yl)acetamido)-2-methylpyridin-3-yl)pyrazolo[5,1-b]thiazole-7-carboxamide]
read-out: PDGFR Cellular IC50
  IC50: 1.6 nM

## Cc1ncc(NC(=O)CN2CCCC23CCC3)cc1NC(=O)c1cnn2cc(-c3cnc4n3CCOC4)sc12 [Example 418, N-(5-(2-(5-azaspiro[3.4]octan-5-yl)acetamido)-2-methylpyridin-3-yl)-2-(5,6-dihydro-8H-imidazo[2,1-c][1,4]oxazin-3-yl)pyrazolo[5,1-b]thiazole-7-carboxamide]
read-out: PDGFR Cellular IC50
  IC50: 6.5 nM

## Cc1ncc(C(=O)NCCN2CCCC2(C)C)cc1NC(=O)c1cnn2cc(-c3cnn4c3OCCC4)sc12 [Example 460, 2-(6,7-dihydro-5H-pyrazolo[5,1-b][1,3]oxazin-3-yl)-N-(5-((2-(2,2-dimethylpyrrolidin-1-yl)ethyl)carbamoyl)-2-methylpyridin-3-yl)pyrazolo[5,1-b]thiazole-7-carboxamide]
read-out: PDGFR Cellular IC50
  IC50: 13.4 nM

## COCCn1cc(-c2cn3ncc(C(=O)Nc4cc(NC(=O)CN5CCC5C(C)C)cnc4C)c3s2)cn1 (centres unmarked) [Example 467, N-(5-(2-(2-isopropylazetidin-1-yl)acetamido)-2-methylpyridin-3-yl)-2-(1-(2-methoxyethyl)-1H-pyrazol-4-yl)pyrazolo[5,1-b]thiazole-7-carboxamide]
read-out: PDGFR Cellular IC50
  IC50: 4.4 nM

## Cc1cc(C(=O)NCCN2CCCC23CCC3)sc1NC(=O)c1cnn2cc(-c3cnn(C)c3)sc12 [Example 35, N-(5-((2-(5-azaspiro[3.4]octan-5-yl)ethyl)carbamoyl)-3-methylthiophen-2-yl)-2-(1-methyl-1H-pyrazol-4-yl)pyrazolo[5,1-b]thiazole-7-carboxamide]
read-out: PDGFR Cellular IC50
  IC50: 33.6 nM
